pIC50: −log10 of the molar value. Where two headings read alike, the source gives them in different places. Bounds are passed on as bounds.

For orientation: pIC50 means −log10 of the IC50, conventionally taken in molar units.

This test deals with T1, P2X7 receptor (Homo sapiens, UniProt Q99572).
T1 construct: host or cells: THP-1 cells differentiated with LPS and IFN-γ
T1 sequence (Q99572 1-595): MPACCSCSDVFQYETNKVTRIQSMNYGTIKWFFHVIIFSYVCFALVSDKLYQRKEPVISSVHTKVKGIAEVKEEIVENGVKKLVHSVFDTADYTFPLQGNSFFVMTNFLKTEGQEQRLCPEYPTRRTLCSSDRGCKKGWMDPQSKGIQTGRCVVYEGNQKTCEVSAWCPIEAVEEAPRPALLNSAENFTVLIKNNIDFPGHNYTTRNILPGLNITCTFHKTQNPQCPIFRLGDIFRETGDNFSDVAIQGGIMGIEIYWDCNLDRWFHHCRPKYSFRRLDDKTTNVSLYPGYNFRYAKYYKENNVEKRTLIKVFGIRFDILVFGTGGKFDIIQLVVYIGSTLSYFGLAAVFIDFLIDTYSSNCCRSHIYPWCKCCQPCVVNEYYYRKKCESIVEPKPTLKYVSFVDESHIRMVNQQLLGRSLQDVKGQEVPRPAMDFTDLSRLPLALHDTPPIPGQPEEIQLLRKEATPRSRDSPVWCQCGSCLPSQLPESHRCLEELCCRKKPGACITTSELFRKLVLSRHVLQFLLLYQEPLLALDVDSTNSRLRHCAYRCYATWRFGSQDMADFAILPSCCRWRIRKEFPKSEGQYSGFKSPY
Nature of the test: IL-1β release assay in differentiated THP-1 cells stimulated with BzATP (Example 9). Format: cell-based. Set-up: inhibition: dose or concentration left out as unconfirmed. The settings on record: for inhibition at 0.3 µM: 0.3 μM compound, differentiated THP-1 cells, BzATP 250 uM, read-out: IL-1β % Inhib. @ 0.3 μM; for inhibition: THP-1, read-out: IL-1β % Inhib.; for pIC50: THP-1 cells, BzATP-stimulated IL-1β release, four parameter logistic fit. The essentials: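 THP-1 cells differentiated 16 h with LPS and IFN-γ (100 ng/mL each), re-primed 2 h with LPS, then compound-pretreated 30 min before 250 uM BzATP for 45 min. Supernatant IL-1β quantified by ELISA; background-adjusted percent inhibition fitted to four-parameter logistic for IC50.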

Consider `CN(C)CCn1ccc2c(NC(=O)CCc3ccc(Cl)cc3)cccc2c1=O` [Compound 1176], for which the inhibition at 0.3 µM ('+' class symbols) lay within 0 to 25%.
Regarding `Cc1ccc(Cl)cc1C(=O)Nc1cccc2c(=O)n(CC3CCN(C)CC3)ccc12` [Compound 1487], the inhibition lay within 0 to 25%.
On to `COc1ccc(CC(=O)Nc2cccc3c(=O)n(CCN(C)C)ccc23)c(OC)c1` [Compound 1022], for which the pIC50 is below 6.00. In addition, under “'+' class symbols”, the inhibition at 0.3 µM was in the range of 0 to 25%.
Turning to `COc1ccc(CC(=O)Nc2cccc3c(=O)n(Cc4ccc(OC(F)(F)F)cc4)ccc23)cc1OC` [Compound 1581], the inhibition was in the range of 0 to 25%.
`COc1ccccc1CC(=O)Nc1cccc2c(=O)n(C)ccc12` [Compound 1295]: the inhibition at 0.3 µM (symbols + to ++++) lay within 0 to 25%.
As to `COc1ccc(C(=O)Nc2cccc3c(=O)n(C)ccc23)cc1C` [Compound 1424], the inhibition was 0 to 25%.
As to `O=C(CCCc1ccccc1)Nc1cccc2c(=O)n(CCN3CCOCC3)ccc12` [Compound 1215], the inhibition at 0.3 µM (symbols + to ++++) is 0 to 25%.
`CCOc1ccc(C(=O)Nc2cccc3c(=O)n(CCCN4CCCC4=O)ccc23)cc1` [Compound 1514]: the inhibition lay in the range of 0 to 25%.
Take `COc1ccccc1CC(=O)Nc1cccc2c(=O)n(Cc3ccc(OC(F)(F)F)cc3)ccc12` [Compound 1577]: the inhibition was 0 to 25%.
Regarding `Cc1cccc(CCC(=O)Nc2cccc3c(=O)n(CC4CCOCC4)ccc23)c1` [Compound 1130], under “'+' class symbols”, the inhibition at 0.3 µM is 0 to 25%.
Turning to `COCCn1ccc2c(NC(=O)c3ccc(OC)c(Cl)c3)cccc2c1=O` [Compound 1067], where the note is “'+' class symbols”, the inhibition at 0.3 µM was in the range of 26 to 50%.
Take `CC(=O)OCCn1ccc2c(NC(=O)Cc3ccc(S(C)(=O)=O)cc3)cccc2c1=O` [Compound 1384]: the pIC50 is below 6.00. In addition, the inhibition at 0.3 µM (symbols + to ++++) fell in the range of 0 to 25%.
In the case of `CCOc1ccc(C(=O)Nc2cccc3c(=O)n(Cc4cccnc4)ccc23)cc1` [Compound 1444], the inhibition was 0 to 25%.
As to `Cc1ccccc1CCC(=O)Nc1cccc2c(=O)n(Cc3ccc(OC(F)(F)F)cc3)ccc12` [Compound 1550], the inhibition was in the range of 0 to 25%.
`COc1cc(CC(=O)Nc2cccc3c(=O)n(Cc4cccnc4)ccc23)cc(OC)c1` [Compound 1360]: where the note is “symbols + to ++++”, the inhibition at 0.3 µM was in the range of 26 to 50%.
As for `CC(C)(C)Cn1ccc2c(NC(=O)c3cc4ccccc4o3)cccc2c1=O` [Compound 1264], where the note is “symbols + to ++++”, the inhibition at 0.3 µM was 0 to 25%.
Take `CN(C)CCn1ccc2c(NC(=O)c3cccc4ccccc34)cccc2c1=O` [Compound 1151]: the inhibition at 0.3 µM ('+' class symbols) fell in the range of 0 to 25%.
`O=C(CCCc1ccccc1)Nc1cccc2c(=O)n(CCCN3CCCC3=O)ccc12` [Compound 1525]: the inhibition lay within 0 to 25%.
Regarding `COc1cc(CC(=O)Nc2cccc3c(=O)n(CC4CCN(C)CC4)ccc23)cc(OC)c1` [Compound 1477], the inhibition lay within 0 to 25%.
In the case of `CC(C)Cc1ccc(C(=O)Nc2cccc3c(=O)n(CC4CCOCC4)ccc23)cc1` [Compound 1136], the inhibition at 0.3 µM ('+' class symbols) was 0 to 25%.
As to `CN(C)CCn1ccc2c(NC(=O)C3(c4ccc(Cl)cc4)CCCC3)cccc2c1=O` [Compound 1614], the pIC50 is below 6.00. The inhibition at 0.3 µM ("+" class symbols) fell in the range of 0 to 25%.
`CC(C(=O)Nc1cccc2c(=O)n(CCS(C)(=O)=O)ccc12)c1ccc(Cl)cc1` (stereo not shown) [Compound 1631] showed a pIC50 below 6.00. Besides, under “"+" class symbols”, the inhibition at 0.3 µM was 0 to 25%.
For the compound `Cc1ccc(C)c(CC(=O)Nc2cccc3c(=O)n(CCN(C)C)ccc23)c1` [Compound 1401], the inhibition is 0 to 25%.
With `O=C(Nc1cccc2c(=O)n(Cc3ccc(OC(F)(F)F)cc3)ccc12)c1ccc2c(c1)OCCCO2` [Compound 1596], the inhibition was in the range of 0 to 25%.
Take `Cc1ccc(C)c(C(=O)Nc2cccc3c(=O)n(CC4CCN(C)CC4)ccc23)c1` [Compound 1463]: the inhibition lay in the range of 0 to 25%.
For `O=C(Nc1cccc2c(=O)n(CCN3CCOCC3)ccc12)c1ccc2c(c1)OCCCO2` [Compound 1225], for the setting “symbols + to ++++”, the inhibition at 0.3 µM is 0 to 25%.
On to `COCCn1ccc2c(NC(=O)Cc3c(C)cc(C)cc3C)cccc2c1=O` [Compound 1065], for which the inhibition at 0.3 µM ('+' class symbols) is 0 to 25%.

The record behind these values is US8546579B2, “Bicycloheteroaryl compounds as P2X7 modulators and uses thereof” (Evotec (US) Inc., priority 2006, dated 2013).
